Reference: patent publication US8158170B2 (SNU R&DB Foundation, priority 2006, dated 2012)

Key:
[1] = tested on: AMP-activated protein kinase (AMPK); assay: Activity (phospho level) of AMPK in liver tissue by Western blotting; format: in vivo, rats; settings: activity decreased due to alcohol intake; oral daily for the last week, alone or concurrently; FIG. 8
Experimental: (§1) Sodium dodecyl sulfate-polyacrylamide gel electrophoresis (SDS-PAGE) was carried out using Mighty Small II SE 250 apparatus according to the Laemmli UK method (1970). Lysis fraction of liver tissue was diluted in a sample dilution buffer [63 mM Tris (pH 6.8), 10% glycerol, 2% SDS, 0.0013% bromophenol blue, 5% β-mercaptoethanol] and electrophoresis was performed in an electrode buffer (15 g of Tris, 72 g of glycine and 5 g of SDS in 1 L) using 7.5% and 9% gel. After electrophoresis, proteins were transferred to nitrocellulose paper at 190 mAmps for a duration of 1 hour, using a transfer buffer [25 mM Tris, 192 mM glycine, 20% v/v methanol (pH 8.3)]. Anti-fatty acid synthase, anti-iNOS, anti-phospho AMPK-α anti-phospho ACC, anti-Fox01, anti-Fox03 and anti-CYP2E1 were reacted as primary antibodies. […] Change in the expression of proteins was analyzed by determining the color intensity of blots through densitometry. […]
(§2) The levels of AMPK (AMP-activated protein kinase), a critical enzyme involved in the oxidation of fatty acid, and phosphate form of ACC (acetyl-CoA carboxylase), a substrate of AMPK, in the liver tissue taken in Example 1 were analyzed by Western blotting.

[2] = tested on: acetyl-CoA carboxylase (ACC); settings: activity decreased due to alcohol intake; oral daily for the last week, alone or concurrently; FIG. 9
Experimental: as §1, §2

[3] = tested on: inducible nitric oxide synthase (iNOS); assay: Expression of iNOS in liver tissue by Western blotting; format: in vivo, rats; settings: expression strongly induced by chronic alcohol intake; oral daily for the last week, alone or concurrently; FIG. 7
Text: iNOS is an enzyme strongly inducing inflammation in liver tissue. The induction of the expression of iNOS is considered as a primary mechanism of alcohol-induced liver damage (Mckim, et al., Gastroenterology 125:1834-1844, 2003; and Venkatraman A, et al., Hepatology 40: 565-573, 2004).

[4] = tested on: fatty acid synthase (FAS); assay: Expression of FAS in liver tissue by Western blotting; format: in vivo, rats; settings: expression decreased by chronic alcohol intake; oral daily for the last week, alone at high dose or concurrently; FIG. 5
Text: The decreased expression of FAS was not restored by the administration of metadoxine or garlic oil alone at high dose.

SMILES: Cc1ncc(CO)c(CO)c1O.O=C1CCC(C(=O)O)N1 [metadoxine, pyridoxol 1-2-pyrrolidone-5-carboxylate]
- activity of AMPK in liver tissue [1]: no change
- activity of ACC in liver tissue [2]: no change
- expression of iNOS in liver tissue [3]: decreased
- expression of fatty acid synthase (FAS) in liver tissue [4]: not restored
